Source: ChEMBL document CHEMBL1201862, “PubChem BioAssay data set” (2004)
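48-hour exposure; five concentrations; linearly interpolated endpoints. GI50 is the concentration that inhibits growth by half.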 The source made the active and inactive calls. Cut-off read from the data, not from the text of the source: active = GI50 up to about 1.1 µM and inactive = higher.

How the values were obtained:
Assay in all cases: NCI-60 cell line screen, 48 h
[1] = system: NCI-H226
[2] = system: SK-OV-3
[3] = system: OVCAR-8
[4] = system: HOP-62
[5] = system: LXFL 529
[6] = system: HCT-116
[7] = system: SR
[8] = system: TK-10
[9] = system: NCI-H23
[10] = system: SF-268
[11] = system: HT-29
[12] = system: CAKI-1
[13] = system: DMS-114
[14] = system: K562
[15] = system: HCC 2998
[16] = system: COLO 205
[17] = system: RXF 631
[18] = system: HCT-15
[19] = system: A549
[20] = system: RXF 393
[21] = system: SK-MEL-5
[22] = system: KM-20L2
[23] = system: EKVX
[24] = system: U-251
[25] = system: OVCAR-5
[26] = system: Malme-3M
[27] = system: OVCAR-3
[28] = system: SNB-19
[29] = system: CCRF-CEM
[30] = system: IGROV-1
[31] = system: XF498
[32] = system: MOLT-4
[33] = system: SF-295
[34] = system: M14
[35] = system: UO-31
[36] = system: HOP-92
[37] = system: HOP-18
[38] = system: DLD-1
[39] = system: M19-MEL
[40] = system: HL-60
[41] = system: OVCAR-4
[42] = system: LOX IMVI
[43] = system: A498
[44] = system: UACC-62
[45] = system: ACHN
[46] = system: KM12
[47] = system: SNB-75
[48] = system: NCI-H460
[49] = system: SN12C
[50] = system: SK-MEL-2
[51] = system: 786-0
[52] = system: SF-539
[53] = system: RPMI-8226
[54] = system: NCI-H522
[55] = system: UACC-257
[56] = system: DMS-273
[57] = system: SK-MEL-28

Which results are given for `COC(=O)C(=O)C(C(=O)OC)C(=O)C(=O)Nc1cc(Cl)c(Cl)cc1Cl` (configuration not stated)?
GI50 [1]: > 100 µM (inactive); GI50 [2]: > 100 µM (inactive); GI50 [3]: > 100 µM (inactive); GI50 [4]: > 100 µM (inactive); GI50 [5]: > 100 µM (inactive); GI50 [6]: 22.4 µM (inactive); GI50 [7]: 24.8 µM (inactive); GI50 [8]: > 100 µM (inactive); GI50 [9]: > 100 µM (inactive); GI50 [10]: > 100 µM (inactive); GI50 [11]: 49.8 µM (inactive); GI50 [12]: > 100 µM (inactive); GI50 [13]: 14.6 µM (inactive); GI50 [14]: > 100 µM (inactive); GI50 [15]: > 100 µM (inactive); GI50 [16]: 29.4 µM (inactive); GI50 [17]: > 100 µM (inactive); GI50 [18]: 47.1 µM; GI50 [19]: > 100 µM (inactive); GI50 [20]: > 100 µM (inactive); GI50 [21]: > 100 µM (inactive); GI50 [22]: > 100 µM (inactive); GI50 [23]: > 100 µM (inactive); GI50 [24]: > 100 µM (inactive); GI50 [25]: > 100 µM (inactive); GI50 [26]: > 100 µM (inactive); GI50 [27]: > 100 µM (inactive); GI50 [28]: > 100 µM (inactive); GI50 [29]: 31.6 µM (inactive); GI50 [30]: > 100 µM (inactive); GI50 [31]: > 100 µM (inactive); GI50 [32]: > 100 µM (inactive); GI50 [33]: > 100 µM (inactive); GI50 [34]: > 100 µM (inactive); GI50 [35]: > 100 µM (inactive); GI50 [36]: > 100 µM (inactive); GI50 [37]: > 100 µM (inactive); GI50 [38]: 76.4 µM (inactive); GI50 [39]: > 100 µM (inactive); GI50 [40]: > 100 µM (inactive); GI50 [41]: > 100 µM (inactive); GI50 [42]: 61 µM (inactive); GI50 [43]: > 100 µM (inactive); GI50 [44]: > 100 µM (inactive); GI50 [45]: > 100 µM (inactive); GI50 [46]: > 100 µM (inactive); GI50 [47]: > 100 µM (inactive); GI50 [48]: > 100 µM (inactive); GI50 [49]: > 100 µM (inactive); GI50 [50]: > 100 µM (inactive); GI50 [51]: > 100 µM (inactive); GI50 [52]: > 100 µM (inactive); GI50 [53]: 24.9 µM (inactive); GI50 [54]: > 100 µM (inactive); GI50 [55]: > 100 µM (inactive); GI50 [56]: 44.7 µM (inactive); GI50 [57]: > 100 µM (inactive)
